pIC50: −log10 of the molar value. Read-outs that look alike come from different tables or passages of the source. Blank lines part the entries; values can stand above or below the molecule they belong to.
Test system: Shionogi mouse mammary carcinoma cells
Test: Antiandrogenic activity on DHT-stimulated Shionogi mouse mammary carcinoma cell number
Format: cell-based
Conditions: for pIC50 / A = Ki OH-Flu/Ki compound: inhibition of DHT-stimulated Shionogi cell number; for pIC50: 10-12 days, read-out: Antiandrogenic activity IC50; for A = Ki OH-Flu/Ki compound: ratio of Ki of hydroxyflutamide versus tested compound, higher values preferable; for IC50: read-out: Antiandrogenic activity IC50 (nM)

pIC50 (Mus musculus): < 6.30
Compound: COc1ccc(-c2ccc([N+](=O)[O-])cc2)cc1 [EM-3234]
A = Ki OH-Flu/Ki compound: <0.2

Compound: CSc1cc(C#N)ccc1-c1ccc(C#N)c(C(F)(F)F)c1 [EM-4227]
pIC50 (Mus musculus): 6.92
A = Ki OH-Flu/Ki compound: 1.2

Compound: N#Cc1ccc(-c2ccc(F)cc2C(F)(F)F)cc1C(F)(F)F [EM-4296]
pIC50 (Mus musculus): < 6.30
A = Ki OH-Flu/Ki compound: <0.2

pIC50 (Mus musculus): < 6.30
Compound: N#Cc1ccc(-c2c(NC(=O)c3ccc(Cl)cc3)cc(F)cc2C(N)=O)cc1C(F)(F)F [EM-5094]
A = Ki OH-Flu/Ki compound: <0.2

Compound: N#Cc1ccc(-c2ccc(F)cc2C(N)=O)cc1C(F)(F)F [EM-4171, 4′-Cyano-4-fluoro-3′-trifluoromethyl-biphenyl-2-carboxylic acid amide]
pIC50 (Mus musculus): 6.03
A = Ki OH-Flu/Ki compound: 0.2

Compound: N#Cc1ccc(-c2ccccc2)cc1C(F)(F)F [EM-4118]
pIC50 (Mus musculus): < 6.30
A = Ki OH-Flu/Ki compound: <0.2

pIC50 (Mus musculus): < 6.30
Compound: CCCCN(CCCC)C(=O)c1cc(F)ccc1-c1ccc(C#N)c(C(F)(F)F)c1 [EM-4844]
A = Ki OH-Flu/Ki compound: <0.2

Compound: N#Cc1cccc(-c2ccc(C#N)c(C(F)(F)F)c2)c1 [EM-3729]
pIC50 (Mus musculus): < 6.30
A = Ki OH-Flu/Ki compound: <0.2

pIC50 (Mus musculus): < 6.30
Compound: CN(C)CCN(C)C(=O)c1cc(F)ccc1-c1ccc(C#N)c(C(F)(F)F)c1 [EM-4980]
A = Ki OH-Flu/Ki compound: <0.2

pIC50 (Mus musculus): 7.55
Compound: CSc1cc(-c2ccc(F)cc2F)ccc1C#N [EM-4288]
A = Ki OH-Flu/Ki compound: 4.4

Compound: N#Cc1ccc(-c2ccc(Br)cc2C(N)=O)cc1C(F)(F)F [EM-4979]
pIC50 (Mus musculus): < 6.30
A = Ki OH-Flu/Ki compound: <0.2

Compound: N#Cc1ccc(-c2ccc(F)c(Cl)c2)cc1C(F)(F)F [EM-4216]
pIC50 (Mus musculus): < 6.30
A = Ki OH-Flu/Ki compound: <0.2

Compound: N#Cc1ccccc1-c1ccc(C#N)c(C(F)(F)F)c1 [EM-4071]
IC50 (Mus musculus): 33 nM
A = Ki OH-Flu/Ki compound: 2.5

Compound: N#Cc1ccc(-c2c(F)cc(F)cc2F)cc1Cl [EM-4851]
pIC50 (Mus musculus): < 6.30
A = Ki OH-Flu/Ki compound: <0.2

Compound: N#Cc1ccc(-c2ccc(F)c([N+](=O)[O-])c2)cc1C(F)(F)F [EM-4230]
pIC50 (Mus musculus): < 6.30
A = Ki OH-Flu/Ki compound: <0.2

Compound: COc1ccc(-c2ccc(C#N)c(C(F)(F)F)c2)cc1 [EM-3394]
IC50 (Mus musculus): 49.5 nM
A = Ki OH-Flu/Ki compound: 1.1

pIC50 (Mus musculus): < 6.30
Compound: N#Cc1ccc(-c2ccc(F)cc2C(=O)Nc2ccncc2)cc1C(F)(F)F [EM-5019]
A = Ki OH-Flu/Ki compound: <0.2

pIC50 (Mus musculus): < 6.30
Compound: N#Cc1ccc(-c2ccc(N)cc2)cc1 [EM-4049]
A = Ki OH-Flu/Ki compound: <0.2

Compound: N#Cc1ccc(-c2ccc([N+](=O)[O-])cc2)cc1C(F)(F)F [EM-4149]
pIC50 (Mus musculus): < 6.30
A = Ki OH-Flu/Ki compound: <0.2

Compound: CCOc1ccc(-c2ccc(C#N)c(C(F)(F)F)c2)c(C(N)=O)c1 [EM-4925]
pIC50 (Mus musculus): < 6.30
A = Ki OH-Flu/Ki compound: <0.2

Compound: N#Cc1ccc(-c2ccc(C(O)C(F)(F)F)cc2)cc1C(F)(F)F (stereo not shown) [EM-3998]
pIC50 (Mus musculus): < 6.30
A = Ki OH-Flu/Ki compound: <0.2

Compound: COc1ccc(-c2ccc(C#N)c(C(F)(F)F)c2)c(C(N)=O)c1 [EM-4905]
pIC50 (Mus musculus): < 6.30
A = Ki OH-Flu/Ki compound: <0.2

pIC50 (Mus musculus): 7.02
Compound: N#Cc1ccc(-c2ccc(F)cc2F)cc1[N+](=O)[O-] [EM-4633]
A = Ki OH-Flu/Ki compound: 0.8

Compound: N#Cc1ccc(-c2ccc(F)cc2C(=O)N2CCCCC2)cc1C(F)(F)F [EM-5020]
IC50 (Mus musculus): > 500 nM
A = Ki OH-Flu/Ki compound: <0.2

Compound: N#Cc1ccc(-c2ccc(C#N)c(C(F)(F)F)c2)cc1 [EM-3730]
pIC50 (Mus musculus): 6.72
pIC50: 6.82

pIC50 (Mus musculus): < 6.30
Compound: N#Cc1ccc(-c2ccc(Br)c(C(F)(F)F)c2)cc1 [EM-4177]
A = Ki OH-Flu/Ki compound: <0.2

Compound: Cc1cc(F)cc([N+](=O)[O-])c1-c1ccc(C#N)c(C(F)(F)F)c1 [EM-4947]
pIC50 (Mus musculus): < 6.30
A = Ki OH-Flu/Ki compound: <0.2

Compound: N#Cc1ccc(-c2ccc(F)c(F)c2)cc1C(F)(F)F [EM-4047]
IC50 (Mus musculus): > 100 nM
A = Ki OH-Flu/Ki compound: <1

Compound: Cc1cc(C#N)ccc1-c1ccc(C#N)c(C(F)(F)F)c1 [EM-4079]
IC50 (Mus musculus): 78 nM
A = Ki OH-Flu/Ki compound: 0.8

pIC50 (Mus musculus): < 6.30
Compound: COC=Nc1cc(F)cc(C(N)=O)c1-c1ccc(C#N)c(C(F)(F)F)c1 [EM-5093]
A = Ki OH-Flu/Ki compound: <0.2

Compound: CCCNC(=O)c1cc(F)ccc1-c1ccc(C#N)c(C(F)(F)F)c1 [EM-4855]
pIC50 (Mus musculus): < 6.30
A = Ki OH-Flu/Ki compound: <0.2

pIC50 (Mus musculus): < 6.30
Compound: CC(=O)Nc1cc(-c2ccc(C#N)c(C(F)(F)F)c2)c(C(N)=O)cc1F [EM-5002]
A = Ki OH-Flu/Ki compound: <0.2

Compound: N#Cc1ccc(-c2ccc(C(F)(F)F)cc2)cc1C(F)(F)F [EM-4051]
pIC50 (Mus musculus): < 6.30
A = Ki OH-Flu/Ki compound: <0.2

pIC50 (Mus musculus): < 6.30
Compound: CSc1cc(-c2ccc(C#N)cc2)ccc1C#N [EM-4285]
A = Ki OH-Flu/Ki compound: <0.2

Compound: CN(C)c1ccc(-c2ccc(C#N)c(C(F)(F)F)c2)cc1 [EM-3814]
pIC50 (Mus musculus): 6.82
A = Ki OH-Flu/Ki compound: 0.9

Compound: CN(C)C(=O)c1cc(F)ccc1-c1ccc(C#N)c(C(F)(F)F)c1 [EM-4865]
pIC50 (Mus musculus): < 6.30
A = Ki OH-Flu/Ki compound: <0.2

Compound: N#Cc1ccc(-c2ccc([N+](=O)[O-])c(C(F)(F)F)c2)cc1 [EM-4180]
IC50 (Mus musculus): > 500 nM
A = Ki OH-Flu/Ki compound: <0.2

Compound: N#Cc1ccc(-c2ccc(F)cc2C(=O)Nc2ccccc2)cc1C(F)(F)F [EM-4864]
IC50 (Mus musculus): > 500 nM
A = Ki OH-Flu/Ki compound: <0.2

pIC50 (Mus musculus): < 6.30
Compound: N#Cc1ccc(-c2ccc(F)cc2F)cc1F [EM-4282]
A = Ki OH-Flu/Ki compound: <0.2

Compound: C[C@@](O)(c1cccc(-c2ccc(C#N)c(C(F)(F)F)c2)c1)C(F)(F)F [EM-4264]
IC50 (Mus musculus): 54 nM
A = Ki OH-Flu/Ki compound: 1.6

Compound: N#Cc1ccc(-c2cccc(F)c2)cc1C(F)(F)F [EM-3977]
pIC50 (Mus musculus): < 6.30
A = Ki OH-Flu/Ki compound: <0.2

Compound: CS(=O)(=O)c1cc(C#N)ccc1-c1ccc(C#N)c(C(F)(F)F)c1 [EM-4255]
pIC50 (Mus musculus): < 6.30
A = Ki OH-Flu/Ki compound: <0.2

Compound: N#Cc1ccc(-c2ccc(C#N)c(C(F)(F)F)c2)cc1Cl [EM-4108]
pIC50 (Mus musculus): 6.95
A = Ki OH-Flu/Ki compound: 0.6

pIC50 (Mus musculus): < 6.30
Compound: N#Cc1ccc(-c2ccc(C#N)c([N+](=O)[O-])c2)cc1 [EM-4344]
A = Ki OH-Flu/Ki compound: <0.2

pIC50 (Mus musculus): < 6.30
Compound: CCCN(CCC)C(=O)c1cc(F)ccc1-c1ccc(C#N)c(C(F)(F)F)c1 [EM-4845]
A = Ki OH-Flu/Ki compound: <0.2

Compound: Cc1cc(-c2ccc(C#N)c(C(F)(F)F)c2)ccc1C#N [EM-4069]
pIC50 (Mus musculus): 6.96
A = Ki OH-Flu/Ki compound: 0.7

pIC50 (Mus musculus): < 6.30
Compound: CC(O)(c1ccc(-c2ccc(C#N)cc2)cc1)C(F)(F)F (stereo not shown) [EM-3979]
A = Ki OH-Flu/Ki compound: <0.2

pIC50 (Mus musculus): < 6.30
Compound: N#Cc1ccc(-c2ccc(Br)cc2C(F)(F)F)cc1[N+](=O)[O-] [EM-4792]
A = Ki OH-Flu/Ki compound: <0.2

Compound: N#Cc1ccc(-c2ccc(C(N)=O)cc2)cc1C(F)(F)F [EM-3971]
pIC50 (Mus musculus): < 6.30
A = Ki OH-Flu/Ki compound: <0.2

pIC50 (Mus musculus): < 6.30
Compound: N#Cc1ccc(-c2ccc(Br)c([N+](=O)[O-])c2)cc1 [EM-4338]
A = Ki OH-Flu/Ki compound: <0.2

Compound: CCNC(=O)c1cc(F)ccc1-c1ccc(C#N)c(C(F)(F)F)c1 [EM-4866]
pIC50 (Mus musculus): < 6.30
A = Ki OH-Flu/Ki compound: <0.2

Compound: COc1ccc(-c2ccc(C#N)c(C(F)(F)F)c2)c(Cl)c1 [EM-4190]
pIC50 (Mus musculus): 6.79
A = Ki OH-Flu/Ki compound: 0.9

pIC50 (Mus musculus): 6.89
Compound: COc1ccc(-c2ccc([N+](=O)[O-])c(C(F)(F)F)c2)cc1 [EM-3393]
A = Ki OH-Flu/Ki compound: 0.4

Reference: patent publication US6933321B2, “Antiandrogenic biphenyls” (Endorecherche, Inc., priority 2002, dated 2005)
